Measured values published in patent US8691791B2, “Microspheres for treatment of brain tumors” (Biocompatibles UK Limited, priority 2007, dated 2014).

What was measured:
Assay type in all cases: physicochemical
[1] = AQ4 and AQ4N loading profile and maximum loading capacity of DC Bead; conditions: DC Bead 500-700 μm; AQ4N target loading 60 mg/mL, 20 hr
[2] = Maximum loading capacity of DEB with Doxorubicin and Mitoxantrone; conditions: beads 700-900 μm
Procedure: Microspheres of the invention were prepared as described in the Reference Example. Sample beads of the size range 700-900 μm were loaded by immersing the beads in aqueous solutions of Doxorubicin HCl (Dox) and Mitoxantrone 2HCl (Mitox). Loading was monitored using UV-visible spectroscopy at the respective wavelengths for absorption maxima of the two drugs (483 nm and 660 nm respectively). The beads were sized and imaged using an Olympus BX50F4 microscope with a Colorview III camcorder. Compressibility was measured using an Instron 4411 with a 50 N load cell.

[3] = Elution of doxorubicin from high AMPS microspheres into distilled water
Procedure: High AMPS microspheres were loaded with various concentrations of doxorubicin and the microspheres eluted into 250 ml of distilled water (FIG. 2).
For the higher drug loadings, a burst effect is evident in the first few minutes, followed by a prolonged period of slower release. It is surmised that the burst represents the free drug eluting from the water held within the microspheres, whereas the prolonged elution results from the drug that is “bound” into the spheres essentially by ionic interaction between the charged groups. For the highest loading of drug (from the 20 mg/ml loading solution), the burst effect represents some 45% of the total drug loading of the spheres, the remainder taking several days to completely elute from the carrier. Studies have shown that 100% of the drug is eventually eluted from the microspheres. Drug-loaded beads were lyophilised to remove water and sterilised using gamma irradiation.

[4] = Irinotecan loading capacity of microspheres (depletion method, UV 369 nm); conditions: microspheres 500-700 μm, irinotecan solution 20 mg/ml, at least 4 hours
Procedure: Irinotecan-loading content and loading efficacy was determined using microspheres, 500-700 μm. A bead slurry was mixed with irinotecan solution (20 mg/ml) in calculated amount, rotating-mixed for at least 4 hours. The solution was measured with UV at 369 nm to determine the irinotecan concentration and the drug-loading in beads (by depletion method). […] Above this the loading efficacy dropped remarkably, indicating saturation of the beads.

[5] = Elution from irinotecan lyophilised microspheres into PBS buffer
Text: Irinotecan was eluted from lyophilised microspheres with different loadings of camptothecin into PBS buffer. The elution rate slowed down after lyophilisation when compared with the non-lyophilised samples. […] Drug-loaded beads were lyophilised to removed water and sterilised using gamma irradiation.

Row | SMILES | maximum loading capacity in DC Bead [1] [mg/mL] | Average (mg) of drug per mL of beads (average maximum capacity of DEB) [2] | Mols of loaded drug/Mols of available binding sites [2] | drug eluting at 3 hours ([3]; 133.2 μg/ml and 2 mg/ml loaded microspheres, 250 ml distilled water) | drug eventually eluted from the microspheres ([3]; high AMPS microspheres) [%] | burst effect as share of the total drug loading of the spheres ([3]; high AMPS microspheres, highest loading (20 mg/ml loading solution), 250 ml distilled water, first few minutes) [%] | concentration range in which irinotecan content in beads increased linearly with loading amount (above it saturation of the beads) [4] | elution rate after lyophilisation compared with non-lyophilised samples [5] | Average (mg) of drug per mL of beads (average maximum capacity of DEB) ([2]; listed as Mitox)
1 | COc1cccc2c1C(=O)c1c(O)c3c(c(O)c1C2=O)C[C@@](O)(C(=O)CO)C[C@@H]3O[C@H]1C[C@H](N)[C@H](O)[C@H](C)O1 [Doxorubicin] | 40 | 39.0 mg per mL of beads | 0.9 | below the detection limit | 100 | ~45 | – | – | –
2 | CCc1c2c(nc3ccc(OC(=O)N4CCC(N5CCCCC5)CC4)cc13)-c1cc3c(c(=O)n1C2)COC(=O)[C@]3(O)CC [Irinotecan] | – | – | – | – | – | – | below 50 mg/ml | slowed down | –
3 | O=C1c2c(O)ccc(O)c2C(=O)c2c(NCCNCCO)ccc(NCCNCCO)c21 [Mitoxantrone] | – | 20.0 mg per mL of beads | 0.5 | – | – | – | – | – | 20 mg per mL of beads
